From patent US20210251269A1, “Beverages Comprising Highly Soluble Steviol Glycoside Blend and Glucosylated Steviol Glycosides” (The Coca-Cola Company, priority 2018, published 2021)

Experiments:
[1] = cited from earlier work
[2] = Solubility at syrup stage (lemon lime and cola beverage syrup, 5.5+1); type: physicochemical
Method: The ingredients were dissolved in filtered water to constitute a syrup, then the final beverage was made by weighing the appropriate syrup amount and adding carbonated water using a ratio of 1-part syrup+5.5 parts carbonated water. Final beverages were filled in 300 ml glass bottles then aged for 3 days at 35° C. before they were cooled and served cold (4° C.). The control with Reb-M was made by heating water up to around 47° C. then dissolving Reb-M. After complete dissolution, the concentrated Reb-M solution was cooled down to ambient temperature before the rest of the ingredients were added.

[3] = Sensory evaluation of beverages by expert panelists; type: in vivo; details: 480 ppm steviol glycosides in finished beverage; at least 5 expert panelists, blind; carbonated beverages tasted at 4° C.
Method: Steviol glycosides with high purity (>95%) namely Rebaudioside A, B, D, M, Glycosylated steviol glycoside (GSG) were evaluated in acidified citric buffer, a lemon lime and a cola carbonated beverage at concentration of 480 ppm in finished beverage.
The beverages were evaluated blindly by at least 5 expert panelists who work and taste steviol glycosides sweetened beverages daily. Samples were coded and randomly presented to the panelists. Panelists were instructed to eat an unsalted cracker and rinse the mouth with water before and in between samples. The maximum samples for each session was set at 5 samples to avoid fatigue. For each sample, panelists were instructed to take 3 sips, then write down their evaluation comments. Mock beverages were tasted at ambient temperature while carbonated beverages (diet lemon lime and cola) were tasted at 4° C.

| Structure (SMILES) | aqueous solubility [1] | solubility at syrup stage [2] [%] | Panelist Rating (1 = most preferred, 6 = least preferred) [3] |
| --- | --- | --- | --- |
| C=C1C[C@@]23CC[C@H]4[C@@](C)(CCC[C@@]4(C)C(=O)O[C@@H]4O[C@H](CO)[C@@H](O)[C@H](O)[C@H]4O)[C@@H]2CC[C@]1(O[C@@H]1O[C@H](CO)[C@@H](O)[C@H](O[C@@H]2O[C@H](CO)[C@@H](O)[C@H](O)[C@H]2O)[C@H]1O[C@@H]1O[C@H](CO)[C@@H](O)[C@H](O)[C@H]1O)C3 [Rebaudioside A] | about 0.8 wt % |  |  |
| C=C1C[C@@]23CC[C@H]4[C@@](C)(CCC[C@@]4(C)C(=O)O[C@@H]4O[C@H](CO)[C@@H](O)[C@H](O[C@@H]5O[C@H](CO)[C@@H](O)[C@H](O)[C@H]5O)[C@H]4O[C@@H]4O[C@H](CO)[C@@H](O)[C@H](O)[C@H]4O)[C@@H]2CC[C@]1(O[C@@H]1O[C@H](CO)[C@@H](O)[C@H](O[C@@H]2O[C@H](CO)[C@@H](O)[C@H](O)[C@H]2O)[C@H]1O[C@@H]1O[C@H](CO)[C@@H](O)[C@H](O)[C@H]1O)C3 [Reb-M, Rebaudioside M] |  | 0.1 | 2 |
